EP0501870A1, “New pharmaceutical compositions, particularly for the treatment of functional infections of the large intestines, and process for obtaining them” (SOCIETE CIVILE BIOPROJET, priority 1991, dated 1992)
Blank lines part the entries; values can stand above or below the compound they belong to.

Experiments:
[1] = Multicentre clinical study in functional colopathy patients; type: in vivo
Excerpt: Une étude multicentrique chez 420 colopathes fonctionnels a été entreprise avec l'acétorphan [R,S], produit pour lequel les études de toxicité chronique chez l'animal rongeur (rat) et non rongeur (singe) autorisaient des études de longue durée (supérieure à 1 mois). […]
Le critère principal d'efficacité retenu était la douleur évaluée selon une échelle analogique. Les autres paramètres pris en considération étaient les troubles du transit, qu'il s'agisse de constipation (54,4 % des cas) ou de diarrhée (39 % des cas).

[2] = tested on: motricité colique; assay: Post-prandial colonic motor activity recorded by strain gauges; type: in vivo, chien; conditions: dog, mean and sd of 8 values
Excerpt: Chez le chien, en période post-prandiale, le mélange des deux isomères [R] 65 % [S]

[3] = target: enképhalinase (Homo sapiens, UniProt P08473); conditions: compared with isomère [S], cited from earlier work
[4] = target: T1, enképhalinase plasmatique (Homo sapiens, UniProt P08473); assay: Plasma enkephalinase activity over time after a single oral dose; type: in vivo, volontaire sain; conditions: healthy volunteer; for Activité enképhalinase plasmatique T3O' / Activité enképhalinase plasmatique T1h / Activité enképhalinase plasmatique T8h / Activité enképhalinase plasmatique TO: 30 mg oral single dose; for Activité enképhalinase plasmatique T3O': 30 min; for Activité enképhalinase plasmatique T3O' / Activité enképhalinase plasmatique T1h / Activité enképhalinase plasmatique T8h: * p < 0.05 vs TO; for Activité enképhalinase plasmatique T1h: 1 h; for Activité enképhalinase plasmatique T8h: 8 h; for Activité enképhalinase plasmatique TO: time zero (baseline)
T1 construct: from tissue; host or cells: plasma of healthy volunteers
Procedure: Chez le volontaire sain, l'activité enzymatique plasmatique a été évaluée en fonction du temps pour suivre l'absorption et la durée de vie des inhibiteurs étudiés, après administration orale d'un dose unique de 30 mg.
Comparaison des inhibitions enképhalinasiques plasmatiques après administration des différents composés à la dose de 30 mg par voie orale.

[5] = target: A.C.E. (Homo sapiens, UniProt P12821); conditions: cited from earlier work
[6] = target: enképhalinase; conditions: type of constant (IC50/Ki) not given; read-out: activité inhibitrice de l'enképhalinase; cited from earlier work
[7] = clinical trials in man; cited from earlier work
[8] = plasma enkephalinase inhibition, 30 mg oral

T1 sequence (P08473 whole entry): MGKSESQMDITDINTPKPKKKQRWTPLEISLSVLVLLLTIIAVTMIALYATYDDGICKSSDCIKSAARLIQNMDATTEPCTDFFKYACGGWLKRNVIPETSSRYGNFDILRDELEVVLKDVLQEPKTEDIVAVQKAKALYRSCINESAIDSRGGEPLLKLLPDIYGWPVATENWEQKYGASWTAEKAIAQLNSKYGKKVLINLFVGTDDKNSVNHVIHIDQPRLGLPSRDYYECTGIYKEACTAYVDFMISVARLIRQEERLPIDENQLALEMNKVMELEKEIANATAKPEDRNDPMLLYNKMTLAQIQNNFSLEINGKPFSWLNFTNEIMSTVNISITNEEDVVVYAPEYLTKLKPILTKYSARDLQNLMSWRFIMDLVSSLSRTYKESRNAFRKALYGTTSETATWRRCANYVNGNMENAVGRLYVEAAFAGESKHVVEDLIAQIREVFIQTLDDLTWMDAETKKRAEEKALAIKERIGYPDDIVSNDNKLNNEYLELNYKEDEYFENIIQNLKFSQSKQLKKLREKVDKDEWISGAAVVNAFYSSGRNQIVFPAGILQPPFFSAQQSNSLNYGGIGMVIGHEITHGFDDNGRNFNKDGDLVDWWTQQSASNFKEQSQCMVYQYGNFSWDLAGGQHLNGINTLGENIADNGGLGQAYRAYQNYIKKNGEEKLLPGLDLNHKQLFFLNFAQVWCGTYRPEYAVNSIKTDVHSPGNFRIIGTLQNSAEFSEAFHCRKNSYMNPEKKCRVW
Chain of enképhalinase (Homo sapiens, UniProt P08473) (P08473 whole entry, species assumed): as the sequence (P08473 whole entry) above
Chain of enképhalinase (P08473 whole entry, species assumed): as the sequence (P08473 whole entry) above
Chain of A.C.E. (P12821 30-1306, species assumed): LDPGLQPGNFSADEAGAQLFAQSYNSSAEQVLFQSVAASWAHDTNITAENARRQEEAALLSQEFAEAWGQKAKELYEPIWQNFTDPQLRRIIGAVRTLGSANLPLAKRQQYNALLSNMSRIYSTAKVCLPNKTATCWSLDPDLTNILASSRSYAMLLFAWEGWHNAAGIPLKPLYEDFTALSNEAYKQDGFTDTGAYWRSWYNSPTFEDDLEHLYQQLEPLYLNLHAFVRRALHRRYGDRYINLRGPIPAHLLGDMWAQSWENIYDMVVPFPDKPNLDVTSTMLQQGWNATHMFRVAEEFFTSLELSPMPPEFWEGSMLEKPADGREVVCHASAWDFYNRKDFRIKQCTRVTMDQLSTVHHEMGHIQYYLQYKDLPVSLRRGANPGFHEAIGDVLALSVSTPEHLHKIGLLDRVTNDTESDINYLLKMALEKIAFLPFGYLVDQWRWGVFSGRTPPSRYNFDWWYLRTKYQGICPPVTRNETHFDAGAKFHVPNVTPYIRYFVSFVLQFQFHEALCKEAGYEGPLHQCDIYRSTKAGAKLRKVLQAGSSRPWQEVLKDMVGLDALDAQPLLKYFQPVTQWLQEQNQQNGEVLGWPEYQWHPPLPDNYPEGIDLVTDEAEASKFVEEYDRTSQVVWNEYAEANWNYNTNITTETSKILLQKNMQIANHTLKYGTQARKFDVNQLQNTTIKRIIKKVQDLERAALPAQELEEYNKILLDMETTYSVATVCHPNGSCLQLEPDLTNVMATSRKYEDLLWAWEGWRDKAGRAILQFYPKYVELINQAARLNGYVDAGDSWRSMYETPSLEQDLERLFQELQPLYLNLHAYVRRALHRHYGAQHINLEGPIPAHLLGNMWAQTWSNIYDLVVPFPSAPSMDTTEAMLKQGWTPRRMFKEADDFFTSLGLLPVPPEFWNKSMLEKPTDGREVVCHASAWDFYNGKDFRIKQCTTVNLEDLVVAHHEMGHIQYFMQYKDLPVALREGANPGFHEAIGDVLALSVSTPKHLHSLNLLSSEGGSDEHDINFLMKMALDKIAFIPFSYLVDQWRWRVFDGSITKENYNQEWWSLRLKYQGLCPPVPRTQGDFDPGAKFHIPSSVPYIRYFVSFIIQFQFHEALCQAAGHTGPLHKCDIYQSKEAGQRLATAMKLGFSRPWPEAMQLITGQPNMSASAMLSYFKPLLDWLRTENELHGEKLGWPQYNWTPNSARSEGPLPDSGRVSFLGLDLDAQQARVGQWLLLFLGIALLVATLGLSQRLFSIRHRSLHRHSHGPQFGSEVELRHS

Structure (SMILES): CC(=O)SCC(Cc1ccccc1)C(=O)NCC(=O)OCc1ccccc1 (racemic) [acétorphan]
- % d'amélioration après acétorphan 100 mg X 3, Ballonnement ([1]; 1 mois (420 sujets)): 60%
- % d'amélioration après acétorphan 100 mg X 3, Douleur ([1]; 1 mois (420 sujets)): 70%
- % d'amélioration après acétorphan 100 mg X 3, Troubles du transit ([1]; 1 mois (420 sujets)): 50%
- % d'amélioration après acétorphan 100 mg X 3, Ballonnement ([1]; 2 mois (115 sujets)): 80%
- % d'amélioration après acétorphan 100 mg X 3, Douleur ([1]; 2 mois (115 sujets)): 84,3%
- % d'amélioration après acétorphan 100 mg X 3, Troubles du transit ([1]; 2 mois (115 sujets)): 81,5%
- % d'amélioration après acétorphan 100 mg X 3, Ballonnement ([1]; 3 mois (40 sujets)): 90%
- % d'amélioration après acétorphan 100 mg X 3, Douleur ([1]; 3 mois (40 sujets)): 87,5%
- % d'amélioration après acétorphan 100 mg X 3, Troubles du transit ([1]; 3 mois (40 sujets)): 94%
- sujets constipés au stade 3 ([1]; after one month of treatment): 0,9%
- sujets diarrhéiques présentant une diarrhée objective et importante (d'intensité 2 et 3) ([1]; after one month of treatment, 20 % before treatment): 2,4%
- sujets constipés souffrant de constipation importante (stades 2 et 3) ([1]; after one month of treatment, 32 % before treatment): 12,7%

- Activité enképhalinase plasmatique T3O' [4]: 40,0 pmol/ml/min
- Activité enképhalinase plasmatique T1h [4]: 32,4* pmol/ml/min
- Activité enképhalinase plasmatique T8h [4]: 46,1 pmol/ml/min
- Activité enképhalinase plasmatique TO [4]: 52,3 pmol/ml/min
- effet maximum [Cmax] [4, 8]: plus faible
Structure (SMILES): CC(=O)SC[C@H](Cc1ccccc1)C(=O)NCC(=O)OCc1ccccc1 [[R], [R] acétorphan]
- Index moteur (évalué par jauge de contrainte) Avant repas (-2-0 h) ([2]; 10 mg/kg per os): 5.7 ± 0.8
- Index moteur (évalué par jauge de contrainte) Après repas (2 - 10 h) ([2]; 10 mg/kg per os, * p < 0.01 vs control): 15.2 ± 2.4
- durée d'action vis-à-vis de l'enképhalinase [3]: environ trois fois moins longue que celle de l'isomère [S]
- effet maximal ([3]; enkephalinase inhibition): moins intense
- durée d'action [4, 8]: plus courte que le dérivé [S] et le mélange [R] + [S]
- activité inhibitrice de l'A.C.E. [5]: dénué d'effet sur l'A.C.E.
- IC50 [6]: 1.7 nM

- Activité enképhalinase plasmatique T3O' [4]: 28,4* pmol/ml/min
- Activité enképhalinase plasmatique T1h [4]: 21,7* pmol/ml/min
- Activité enképhalinase plasmatique T8h [4]: 37* pmol/ml/min
- Activité enképhalinase plasmatique TO [4]: 53,3 pmol/ml/min
Structure (SMILES): CC(=O)SC[C@@H](Cc1ccccc1)C(=O)NCC(=O)OCc1ccccc1 [[S], [S] acétorphan]
- Index moteur (évalué par jauge de contrainte) Avant repas (-2-0 h) ([2]; 5 mg/kg per os): 6.3 ± 1
- activité inhibitrice de l'A.C.E. [5]: résidant essentiellement dans l'isomère [S]
- IC50 [6]: 2.2 nM
- effet antihypertenseur [7]: effet antihypertenseur, démontré chez l'homme
